Data on 2 substances can be found in patent publication US8957022B2, “Multimeric tie 2 agonists and uses thereof in stimulating angiogenesis” (Sunnybrook Health Sciences Centre, priority 2006, dated 2015).

Experiment [1] deals with CD1 mice. Description: Matrigel plug angiogenesis assay. Particulars: for Vessel growth in plugs (confocal analysis): FITC lectin. Type of experiment: in vivo, mouse. The protocol: To further examine the in vivo angiogenic potential of Vasculotide, a Matrigel assay was performed. More specifically, growth factor reduced Matrigel (BD Biosciences) was impregnated with either clustered Vasculotide or one of several different control factors. These Matrigel samples were injected subcutaneously into the flank region of 3 month old CD1 mice. 14 days post implantation and immediately prior to sacrifice, FITC lectin (100 μg) was injected IV and allowed to circulate for 10 minutes, to facilitate vessel identification and quantification. Plugs were surgically resected and fixed in 4% paraformaldehyde (PFA) for 16 h. Images of vascular topology were taken using a Zeiss dissecting microscope at 4× magnification. Upon fixing, all plugs were whole mount stained with anti-Sma1-Cy3. Plugs were analyzed on a Zeiss Axiovert 100 M confocal microscope (Carl Zeiss) for three dimensional image reconstruction and photos were processed using LSM Image Browser and Adobe Photoshop 7.0. Morphometric quantification of vessel characteristics was performed by skeletonizing confocal image projections with Image Processing Tool Kit 5.0 (IPTK 5.0). Student's t test was used to test the statistical significance with a 95% confidence interval. All experiments were performed with three replicates each, with at least 5 random image stacks.
To more fully address and assign quantitative vessel parameters to the different treatment groups, the plugs were fixed and interrogated with laser confocal microscopy analysis combined with post processing image analysis (Image Processing Tool Kit 5.0, Reindeer Graphics, N.C.). Vessel parameters, including length, number and branch points (nodes) were quantified on at least six representative fields. Statistical analysis was performed by way of unpaired Student's t test. Bar graphs of the number of vessels, vessel length and number of nodes, for each treatment group, are shown in FIGS. 3A, 3B and 3C, respectively. It is noted that poor perfusion of FITC-lecithin into mice harboring 20 nM clustered Vasculotide plus VEGF plugs prevented statistical analysis, therefore bars are the mean of two separate fields. All other bars shown represent mean+/−SD.
Ang 1 has been reported to potentiate the recruitment of myogenic support cells (Suri, C. et al. (1996) Cell 87:1171-1180) and inhibit VEGF induced vascular permeability through mechanisms that are not well understood (Thurston, G. et al. (2000) Nat. Med. 6:460-463). To determine if Vasculotide, like Ang 1, was capable of initiating pericyte recruitment, whole mount immunofluorescence was performed against smooth muscle actin 1 (Sma1). […] Sma 1 staining was tightly associated with the exterior of the vessels and was enriched on larger vessels.

Experiment [2] relates to CD1 mice. Type of experiment: in vivo. Particulars: 50 μg intravenously, peripheral blood 24 hours post injection. The protocol: In this example, the effect of systemically administered Vasculotide on circulating endothelial cells was examined. Three month old CD1 mice were injected intravenously with either PBS (vehicle) or 50 μg of clustered Vasculotide. Twenty four hours post injection, peripheral blood was collected on heparin via cardiac puncture and nonhematopoietic circulating endothelial cells (CECs) were sorted using a four channel FACS approach. CECs were defined as CD13^+/VEGFR-2^+/CD45^−, Viable (propidium iodide). Cell numbers reported are number of viable cells/μl of peripheral blood. Total white blood cell count was also determined using a hemocytometer.

In experiment [3] the target is Tie 2 (Homo sapiens, UniProt Q02763). Description: Tie 2 activation (pY992 Tie 2 immunoblot) in HUVEC. Type of experiment: cell-based. More on the design: downstream signalling pathways in human umbilical vein endothelial cells (HUVEC) (Cambrex, N.J.); host or cells: HUVEC, passage 3-9. The protocol:
(§1) Having established that Vasculotide was able to bind Tie 2 (see Example 2), the ability of Vasculotide, when clustered with avidin in a 4:1 ratio (Vasculotide:avidin), to activate the Tie 2 receptor was tested by examining several well established downstream signalling pathways in human umbilical vein endothelial cells (HUVEC) (Cambrex, N.J.). Such signalling pathways are described in, for example, Kim, I. et al. (2000) Circ. Res. 9:952-959; Fujikawa, K. et al. (1999) Exp. Cell. Res. 2:663-672; Babaei, S. et al. (2003) Am. J. Pathol. 6:1927-1936.
(§2) HUVEC were grown on 6-well or 10 cm plates (Nunc) coated with gelatin (Sigma). HUVEC were cultured in F12 growth medium containing 10% fetal bovine serum (FBS), 0.1 mg/ml heparin sulphate, 1× penicillin, 1× streptomycin, 1× glutamine, VEGF 10 ng/ml, EGF 10 ng/ml, bFGF 5 ng/ml. All HUVEC were used between passage 3-9.
(§3) HUVEC were stimulated with one of either Ang 1 (R&D Systems), Vasculotide, avidin or clustered Vasculotide (preclustered with a 4:1 molar ratio of peptide:avidin in PBS for 2 hours at 4° C.) at various doses. Stimulations with Vasculotide were performed in full serum containing growth media for 15 minutes unless otherwise indicated. Cell lysate preparations and immunoblot analysis were performed by standard methods. Antibodies used for immunoblotting (in this and/or subsequent Examples) were monoclonal anti Tie 2 (Pharminogen), polyclonal anti pY992 Tie 2, (Cell Signaling Technology), polyclonal anti MAPK (Cell Signaling Technology), monoclonal anti phospho MAPK (Cell Signaling Technology), polyclonal anti AKT (Cell Signaling Technology), polyclonal anti pS473 AKT (Cell Signaling Technology), monoclonal anti pS1177 eNOS (BD Biosciences), polyclonal anti pY397 FAK (Biosource), polyclonal anti FAK (Santa Cruz), polyclonal anti smooth muscle actin-Cy3 direct conjugate (Dako), polyclonal anti PECAM (Pharminogen) and polyclonal anti smooth muscle actin (Sigma).
To examine Tie 2 activation kinetics, HUVEC were stimulated with native Ang 1 or clustered Vasculotide for various times. Stimulation was performed in 10% FBS. […] Overall, activation of the receptor by either Ang 1 or clustered Vasculotide followed a very similar time course with phosphorylation returning to almost basal levels sometime after 2 hours.
Background: A western blot detects proteins with antibodies after separation by electrophoresis.

The test system of experiment [4] is MAPK, AKT and eNOS. Put plainly: Phosphorylation of downstream signalling proteins in HUVEC (immunoblot). Type of experiment: cell-based, human. The protocol: as §1, §2
HUVEC were stimulated with one of either Ang 1 (R&D Systems), Vasculotide, avidin or clustered Vasculotide (preclustered with a 4:1 molar ratio of peptide:avidin in PBS for 2 hours at 4° C.) at various doses. Stimulations with Vasculotide were performed in full serum containing growth media for 15 minutes unless otherwise indicated. Cell lysate preparations and immunoblot analysis were performed by standard methods. […]

Experiment [5] has as its system focal adhesion kinase (FAK). Put plainly: FAK activation in HUVEC (pY397 FAK immunoblot). Particulars: time course. Type of experiment: cell-based, human. The protocol: as §3
To examine Tie 2 activation kinetics, HUVEC were stimulated with native Ang 1 or clustered Vasculotide for various times. Stimulation was performed in 10% FBS. […]

Tie 2, sequence (Q02763 23-1124): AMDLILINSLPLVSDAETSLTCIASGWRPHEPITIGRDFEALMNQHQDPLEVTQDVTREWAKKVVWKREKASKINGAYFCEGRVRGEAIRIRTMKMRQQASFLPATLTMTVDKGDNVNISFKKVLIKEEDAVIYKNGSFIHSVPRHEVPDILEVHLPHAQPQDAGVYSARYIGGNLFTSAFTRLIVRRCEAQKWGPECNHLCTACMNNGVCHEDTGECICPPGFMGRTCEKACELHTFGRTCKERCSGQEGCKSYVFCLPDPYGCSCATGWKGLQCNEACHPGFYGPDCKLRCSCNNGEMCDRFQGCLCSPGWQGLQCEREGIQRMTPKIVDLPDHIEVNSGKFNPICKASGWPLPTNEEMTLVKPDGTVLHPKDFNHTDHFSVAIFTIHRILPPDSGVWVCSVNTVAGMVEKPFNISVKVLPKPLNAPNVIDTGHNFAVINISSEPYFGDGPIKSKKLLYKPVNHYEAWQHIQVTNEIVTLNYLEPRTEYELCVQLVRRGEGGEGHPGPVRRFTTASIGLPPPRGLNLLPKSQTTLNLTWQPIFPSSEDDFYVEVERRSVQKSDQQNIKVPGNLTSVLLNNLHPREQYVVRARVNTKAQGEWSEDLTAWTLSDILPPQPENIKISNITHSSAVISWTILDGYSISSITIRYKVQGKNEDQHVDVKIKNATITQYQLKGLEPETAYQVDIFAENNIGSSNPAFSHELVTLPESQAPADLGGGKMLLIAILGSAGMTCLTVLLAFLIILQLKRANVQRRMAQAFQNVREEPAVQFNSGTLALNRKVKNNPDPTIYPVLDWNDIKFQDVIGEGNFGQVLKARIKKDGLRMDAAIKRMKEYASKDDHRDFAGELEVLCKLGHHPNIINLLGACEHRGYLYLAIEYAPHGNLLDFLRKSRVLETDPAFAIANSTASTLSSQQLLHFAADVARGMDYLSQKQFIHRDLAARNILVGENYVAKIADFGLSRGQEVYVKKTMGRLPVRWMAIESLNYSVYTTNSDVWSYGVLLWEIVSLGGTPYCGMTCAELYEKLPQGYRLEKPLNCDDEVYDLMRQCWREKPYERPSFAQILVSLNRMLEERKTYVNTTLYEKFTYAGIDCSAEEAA

Take “Vasculotide: biotinylated T7 peptide-PEG: Cys-His-His-His-Arg-His-Ser-Phe (SEQ ID NO: 2) conjugated to EZ-link-PEO-maleimide-biotin”: in experiment [1] (14 days post implantation), the “Vessel growth in plugs (confocal analysis)” value is on record as “no significant vessel growth”. The “Number of circulating endothelial cells” value in experiment [2] is reported as “decrease in the number of circulating endothelial cells”. For the same substance, the “Tie 2 phosphorylation without preclustering” value in experiment [3] (avidin alone and unclustered Vasculotide) is “only when preclustered with avidin was Vasculotide able to stimulate Tie 2 phosphorylation”.
Take “clustered Vasculotide: Vasculotide clustered with avidin in a 4:1 ratio, an obligate tetrameric compound”: the “pMAPK and pAKT in the time course” value in experiment [4] (10% FBS) was “marked increases in pMAPK and pAKT”. Also, the “Phosphorylation of Tie 2-responsive proteins MAPK, AKT and eNOS” value in experiment [4] (coincident with receptor activation) was “phosphorylation of several known Tie 2-responsive proteins including MAPK, AKT and eNOS, was observed”. In addition, in experiment [5], the “Activation of FAK” value is on record as “no significant effect”. Further, in experiment [1] (14 days post implantation), the “Nature of vessels (arborization, tortuosity)” value is listed as “clear, large, well arborized vessels” and the “Vessel growth in plugs (confocal analysis)” value is recorded as “robust induction of angiogenesis”. The “Angiogenic response in the membranous capsule surrounding the plugs” value in experiment [1] (14 days post implantation, subcutaneous) was “distinct and robust angiogenic response”. Also, the “Smooth muscle actin 1 (Sma1) staining, pericyte recruitment” value in experiment [1] (whole mount immunofluorescence) is on record as “significant increase in overall Sma 1 staining”. Further, the “Ability to activate Tie 2 phosphorylation, time course, versus Ang 1 (400 ng/ml)” value in experiment [3] (2 nM, 10% FBS) was “compared favorably to Ang 1”. Moreover, the “Tie 2 receptor activation at high concentration” value in experiment [3] (50 nM) is on record as “not capable of activating Tie 2 receptor activity”. For the same substance, the “Optimal concentration for Tie 2 activation (pY992 Tie 2)” value in experiment [3] (15 minutes) is 5-10 nM.
